Holding throughout (conditions): 25° C., 1 h
For one experiment, the target named is T1, Human KRAS WT (Homo sapiens, UniProt P01116).
T1 construct: purchased PerkinElmer
The experiment is described as follows: KRAS WT:GTP binding assay (HTRF kit). The protocol:
Test Example 3: KRAS WT Binding Assay
In this method, the inhibitory effects of the compounds on the binding of KRAS WT to GTP were assayed by a homogeneous time-resolved fluorescence (HTRF) technique using a KRAS WT:GTP binding assay kit (PerkinElmer).
(§1) The experimental procedures were as follows (refer to the kit instructions for detailed test methods): the compounds of the present disclosure were each firstly dissolved in DMSO at a stock concentration of 20 mM. The stock solutions of the compounds were diluted in an equal gradient with DMSO, and then were subjected to second dilution with a buffer in the kit, so that the final concentrations of the test compounds in the reaction system were in a range of 0.02-5000 nM, and the final concentration of DMSO was 0.5%. […] After the incubation was completed, the fluorescence intensity of each well was measured at the excitation wavelength of 337 nm and the emission wavelengths of 620 nm and 665 nm with an EnVision microplate reader (PerkinElmer) in the HTRF mode, and Ratio values were calculated using the formula: Ratio=(665 nm/620 nm)×104. The inhibition rates of the compounds at each concentration were calculated by comparing the fluorescence intensity ratio with that of the control group. […]
Background: TR-FRET usually uses a lanthanide donor and a delayed reading to cut background.

For another experiment, the target named is T2, Human KRAS G12C (Homo sapiens, UniProt P01116, G12C).
T2 construct: purchased PerkinElmer
The experiment is described as follows: KRAS G12C:GTP binding assay (HTRF kit). The protocol: Test Example 4: KRAS G12C Binding Assay
In this method, the inhibitory effects of the compounds on the binding of KRAS G12C to GTP were assayed by a homogeneous time-resolved fluorescence (HTRF) technique using a KRAS G12C:GTP binding assay kit (PerkinElmer).
as §1

For a further experiment, the target named is T3, Human KRAS G12D (Homo sapiens, UniProt P01116, G12D).
T3 construct: purchased PerkinElmer
Kind of experiment: KRAS-G12D/GTP binding assay (HTRF kit). The method, then: Test Example 1: KRAS G12D Binding Assay
In this method, the inhibitory effects of the compounds on the binding of KLRAS G12D to GTP were assayed by a homogeneous time-resolved fluorescence (HTRF) technique using a KLRAS-G12D/GTP binding assay kit (PerkinElmer).
as §1, with “a” for “a stock”, “mM, and then” for “mM. The stock solutions of the compounds were”, “gradient” for “gradient with DMSO, and then were subjected to second dilution”, “nm)×[…].” for “nm)×104.”

The results in this text go back to patent US20260167622A1, “PAN-KRAS DEGRADING AGENT, AND PREPARATION METHOD THEREFOR AND USE THEREOF” (LEADINGTAC PHARMACEUTICAL (SHAOXING) CO., LTD., priority 2022, published 2026).

T3 sequence (P01116 1-188 isoform P01116-2 G12D): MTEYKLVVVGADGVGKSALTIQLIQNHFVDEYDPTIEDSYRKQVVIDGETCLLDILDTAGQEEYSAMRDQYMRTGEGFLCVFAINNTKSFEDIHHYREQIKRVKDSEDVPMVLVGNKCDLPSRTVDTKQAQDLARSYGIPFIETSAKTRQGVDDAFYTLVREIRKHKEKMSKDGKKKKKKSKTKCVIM
T1 sequence (P01116 1-188 isoform P01116-2): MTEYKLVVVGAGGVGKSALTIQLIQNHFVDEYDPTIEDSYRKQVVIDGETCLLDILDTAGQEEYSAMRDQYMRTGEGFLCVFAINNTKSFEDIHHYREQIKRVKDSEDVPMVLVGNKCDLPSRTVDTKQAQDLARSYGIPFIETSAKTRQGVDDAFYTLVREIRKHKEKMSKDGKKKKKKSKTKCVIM
T2 sequence (P01116 1-188 isoform P01116-2 G12C): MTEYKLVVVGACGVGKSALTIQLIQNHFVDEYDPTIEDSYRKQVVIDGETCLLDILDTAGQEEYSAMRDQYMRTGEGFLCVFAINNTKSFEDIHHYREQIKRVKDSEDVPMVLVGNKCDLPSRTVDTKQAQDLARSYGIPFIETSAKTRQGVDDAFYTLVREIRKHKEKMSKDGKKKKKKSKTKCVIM

One may read the IC50 as the point on the concentration scale where inhibition reaches its midpoint. Low values mean greater potency, high ones weaker potency. In the case of `C#Cc1c(F)ccc2cc(O)cc(-c3ncc4c(N5CCC[C@@](C)(O)C5)nc(OCC5(CN6CCN(CC7CCC8(CC7)CCN(C(=O)c7ccc(Cl)c(N9CCC(=O)NC9=O)c7)CC8)CC6)CC5)nc4c3F)c12` [Example 1, (R)-1-(2-chloro-5-(9-((4-((1-(((7-(8-ethynyl-7-fluoro-3-hydroxynaphthalen-1-yl)-8-fluoro-4-(3-hydroxy-3-methylpiperidin-1-yl)pyrido[4,3-d]pyrimidin-2-yl)oxy)methyl)cyclopropyl)methyl)piperazin-1-yl)methyl)-3-azaspiro[5.5]undecane-3-carbonyl)phenyl)dihydropyrimidine-2,4(1H,3H)-dione], the IC50 at Human KRAS WT is 1000 to 10000 nM; on Human KRAS G12C, 500 to 1000 nM; on Human KRAS G12D it was at most 500 nM.

As to `CCc1cccc2cc(O)cc(-c3ncc4c(N5CCC[C@@](C)(O)C5)nc(OCC5(CN6CCN(CC7CCC8(CC7)CCN(C(=O)c7ccc(Cl)c(N9CCC(=O)NC9=O)c7)CC8)CC6)CC5)nc4c3F)c12` [Example 3, (R)-1-(2-chloro-5-(9-((4-((1-(((7-(8-ethyl-3-hydroxynaphthalen-1-yl)-8-fluoro-4-(3-hydroxy-3-methylpiperidin-1-yl)pyrido[4,3-d]pyrimidin-2-yl)oxy)methyl)cyclopropyl)methyl)piperazin-1-yl)methyl)-3-azaspiro[5.5]undecane-3-carbonyl)phenyl)dihydropyrimidine-2,4(1H,3H)-dione], the results for the concentration for half-maximal inhibition (IC50) on Human KRAS WT, on Human KRAS G12C and at Human KRAS G12D were 500 to 1000 nM, at most 500 nM and at most 500 nM, respectively.
